How the values were obtained:
[1] = system: cholesterol biosynthesis in OPCs (CYP51, TM7SF2, EBP); experiment: GC/MS-based sterol profiling in OPCs; type: cell-based, mouse; settings: range of doses, GC-MS sterol profiling, FIG. 3f
Experimental: EpiSC-derived OPCs were plated at 0.5 million cells per ml in PDL- and laminin-coated six or twelve well plate with differentiation media. After 24 hours, cells were dissociated with Accutase, rinsed with saline, and cell pellets were frozen. For sterol analyses, cells were lysed in methanol (Sigma-Aldrich) with agitation for 30 minutes and cell debris removed by centrifugation at 10,000 rpm for 15 min. Cholesterol-d7 standard (25,26,26,26,27,27,27-^2H7-cholesterol, Cambridge Isotope Laboratories) was added before drying under nitrogen stream and derivatization with 55 μl of bis(trimethylsilyl)trifluoroacetamide/trimethylchlorosilane to form trimethylsilyl derivatives. Following derivatization at 60° C. for 20 minutes, 1 μl was analyzed by gas chromatography/mass spectrometry using an Agilent 5973 Network Mass Selective Detector equipped with a 6890 gas chromatograph system and a HP-5MS capillary column ([…]). Samples were injected in splitless mode and analyzed using electron impact ionization. Ion fragment peaks were integrated to calculate sterol abundance, and quantitation was relative to cholesterol-d7. The following m/z ion fragments were used to quantitate each metabolite: cholesterol-d7 (465), FF-Mas (482), cholesterol (368), zymostenol (458), zymosterol (456), desmosterol (456, 343), 7-dehydrocholesterol (456, 325), lanosterol (393), lathosterol (458), 14-dehydrozymostenol (456). Calibration curves were generated by injecting varying concentrations of sterol standards and maintaining a fixed amount of cholesterol-D7. The human glioma cell line GBM528 was a gift of Jeremy Rich (Cleveland Clinic). Human cortical spheroids were generated as described previously.

EBP = target: T1, EBP (Mus musculus, UniProt P70245); experiment: EBP enzymatic assay; type: biochemical; settings: 10 μM, FIG. 4a
T1 construct: active EBP was obtained from mouse microsomes; from tissue
T1 sequence (P70245 1-230): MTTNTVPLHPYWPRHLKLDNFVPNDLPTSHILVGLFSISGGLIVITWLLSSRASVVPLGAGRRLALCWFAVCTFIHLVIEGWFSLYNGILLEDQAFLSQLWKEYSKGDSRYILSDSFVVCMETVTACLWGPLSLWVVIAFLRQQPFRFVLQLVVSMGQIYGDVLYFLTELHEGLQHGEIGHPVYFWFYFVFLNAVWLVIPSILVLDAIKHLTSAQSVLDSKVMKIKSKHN
Experimental: EBP enzymatic activity was measured using a reported method with slight modifications: active EBP was obtained from mouse microsomes, inhibitors were added, zymostenol was added at a final concentration of 25 μM in a final reaction volume of 500 μl, and the reaction incubated at 37° C. for 2 h. Sterols were extracted using 3×1 ml hexanes, cholesterol-d7 was added to enable quantitation, and the pooled organics were dried (Na2SO4) and evaporated under nitrogen gas. Samples were then silylated and analyzed using GC/MS as described above.

[2] = system: EpiSC derived OPCs on microfibers; experiment: Oligodendrocyte formation and imaging on electrospun microfibers; type: cell-based, mouse; settings: FIG. 4b
Experimental: A 12-well plate containing Mimetex aligned scaffold (microfiber plate, AMSBIO, AMS.TECL-006-1X, Electrospun poly-L-lactide Scaffold, […] fibre diameter cell crown inserts) was prepared as previously described. Briefly, fiber inserts were sterilized with 70% ethanol and washed with PBS before being coated with polyornithine and laminin. After laminin coating, 100,000 cells/mL of EpiSC derived OPCs (1.5 mL/well) were plated in differentiation medium. After 24 h the media was replaced with fresh media containing small molecule treatments. Every 48 h the media was replaced with fresh compound containing media for the first 4 days of 14 days culture. Microfibre inserts were fixed with 4% PFA, permeabilized with 0.1% Triton X-100, and blocked with 10% donkey serum (v/v) in PBS for 60 min. Then stained for MBP (Abcam, ab7349; 1:100) and DAPI staining (Sigma; 5 μg/ml). […] The mounted inserts were imaged on the Operetta High Content Imaging and Analysis system (PerkinElmer) and a set of 22 fields captured from each condition resulting in an average of 2000 cells being scored per well. The total microfiber area was calculated using bright filed imaging and a spot finding function (area larger than 2 p×2). The MBP+ pixel area within the defined microfiber area was then defined and the percentage of the total microfiber area calculated.

- EBP inhibition in an in vitro enzymatic assay (EBP): enhanced potency for EBP inhibition
SMILES: c1ccc(-c2ccc(CN3CCCCCCC3)cc2)cc1 [Compound 1]
- EBP inhibition in OPCs (zymostenol) [1]: enhanced potency for EBP inhibition
- area of microfibers wrapped by MBP+ oligodendrocytes [2]: substantially increased
